Assay results reported in ChEMBL document CHEMBL1138696, “Evans Blue and other dyes as protein tyrosine phosphatase inhibitors” (Bioorg Med Chem Lett, 2004).

Columns and labels:
[1] = biological target: T1, Tyrosine-protein phosphatase non-receptor type 1 (Homo sapiens, UniProt P18031); assay: Inhibition of human PTPase 1B
T1 sequence (P18031 whole entry): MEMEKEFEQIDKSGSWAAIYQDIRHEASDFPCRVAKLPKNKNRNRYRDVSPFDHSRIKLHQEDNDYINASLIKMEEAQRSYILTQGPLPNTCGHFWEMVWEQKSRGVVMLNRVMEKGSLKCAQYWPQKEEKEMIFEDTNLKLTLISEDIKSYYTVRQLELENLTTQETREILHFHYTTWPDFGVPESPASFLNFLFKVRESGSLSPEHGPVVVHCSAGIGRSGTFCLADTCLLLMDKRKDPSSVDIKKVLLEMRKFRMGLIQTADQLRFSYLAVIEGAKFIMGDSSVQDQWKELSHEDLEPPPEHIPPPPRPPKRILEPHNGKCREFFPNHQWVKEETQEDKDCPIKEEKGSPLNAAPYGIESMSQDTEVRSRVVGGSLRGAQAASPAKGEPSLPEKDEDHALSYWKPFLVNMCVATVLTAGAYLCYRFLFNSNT

[2] = biological target: T2, Tyrosine-protein phosphatase 1 (Saccharomyces cerevisiae S288c, UniProt P25044); assay: Inhibitory activity against Saccharomyces cerevisiae Tyrosine phosphatase 1
T2 sequence (P25044 whole entry): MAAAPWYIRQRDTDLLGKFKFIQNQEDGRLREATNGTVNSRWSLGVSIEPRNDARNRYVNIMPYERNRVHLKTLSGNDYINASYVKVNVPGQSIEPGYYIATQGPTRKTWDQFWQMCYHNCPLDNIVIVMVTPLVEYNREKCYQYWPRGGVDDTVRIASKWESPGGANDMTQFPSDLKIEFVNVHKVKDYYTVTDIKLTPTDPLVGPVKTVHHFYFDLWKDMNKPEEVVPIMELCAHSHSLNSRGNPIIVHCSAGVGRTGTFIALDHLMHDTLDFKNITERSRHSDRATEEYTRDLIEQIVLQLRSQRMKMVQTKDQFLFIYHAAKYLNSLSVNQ

[3] = Inhibition of human Leukocyte Antigen Related(LAR) protein tyrosine phosphatase D1

`O=C(O)c1cc(N=Nc2ccc([N+](=O)[O-])cc2)ccc1O` showed an IC50 [1] of 210 µM, an IC50 [2] of 630 µM and an IC50 [3] greater than 1000 µM.

Molecule `CC(C)=CC[C@@H](O)C1=CC(=O)c2c(O)ccc(O)c2C1=O` [SHIKONIN] has an IC50 [1] of 25 µM and an IC50 [3] greater than 1000 µM.

In the case of `COc1cc(S(=O)(=O)O)c(C)cc1N=Nc1c(O)ccc2cc(S(=O)(=O)O)ccc12` [E129], the IC50 [1] is reported as 33 µM, the IC50 [2] is reported as 410 µM and the IC50 [3] is reported as 90 µM.

`C/C(=C1/C=CC(=O)C(C(=O)O)=C1)c1ccc(O)c(C(=O)O)c1` showed an IC50 [1] of 5.2 µM, an IC50 [2] of 30 µM and an IC50 [3] greater than 1000 µM.

Molecule `O=S(=O)(O)c1cc(O)c2c(O)cc(S(=O)(=O)O)cc2c1` [CHROMOTROPATE] has an IC50 [1] of 9.7 µM, an IC50 [2] of 6.5 µM and an IC50 [3] of 570 µM.

In the case of `Cc1cc(-c2ccc(/N=N/c3c(S(=O)(=O)O)cc4cc(S(=O)(=O)O)cc(N)c4c3O)c(C)c2)ccc1/N=N/c1c(S(=O)(=O)O)cc2cc(S(=O)(=O)O)cc(N)c2c1O` [TRYPAN BLUE], the IC50 [1] is reported as 3.9 µM, the IC50 [2] is reported as 7.4 µM and the IC50 [3] is reported as 170 µM.

With `O=C(O)c1cc2ccccc2c(Cc2c(O)c(C(=O)O)cc3ccccc23)c1O` [PAMOIC ACID] the IC50 [1] was 310 µM, the IC50 [2] was greater than 1000 µM and the IC50 [3] was greater than 1000 µM.

Molecule `O=C1c2ccccc2C(=O)c2c1cc(S(=O)(=O)O)c(O)c2O` [Alizarin Red S] has an IC50 [1] of 40 µM, an IC50 [2] of 48 µM and an IC50 [3] of 82 µM.

`Cc1cc(-c2ccc(/N=N/c3ccc4c(S(=O)(=O)O)cc(S(=O)(=O)O)c(N)c4c3O)c(C)c2)ccc1/N=N/c1ccc2c(S(=O)(=O)O)cc(S(=O)(=O)O)c(N)c2c1O` [EVANS BLUE] showed an IC50 [1] of 1.3 µM, an IC50 [2] of 1.2 µM and an IC50 [3] of 61 µM.

`Cc1[nH]n(-c2ccccc2)c(=O)c1N=Nc1c(O)cc(S(=O)(=O)O)c2ccccc12` showed an IC50 [1] of 150 µM, an IC50 [2] of 140 µM and an IC50 [3] of 660 µM.

In the case of `Cc1c(C(=O)O)c(O)cc2c1C(=O)c1c(O)c([C@H]3O[C@H](CO)[C@@H](O)[C@H](O)[C@H]3O)c(O)c(O)c1C2=O` [CARMINE], the IC50 [1] is reported as 26 µM, the IC50 [2] is reported as 15 µM and the IC50 [3] is reported as greater than 1000 µM.

Molecule `O=S(=O)(O)c1cc(S(=O)(=O)O)c2c(N=Nc3c(O)cc(S(=O)(=O)O)c4ccccc34)c(O)c(S(=O)(=O)O)cc2c1` [E126] has an IC50 [1] of 460 µM and an IC50 [2] of 110 µM.

For `O=C1OC2(c3ccc(O)cc3Oc3cc(O)ccc32)c2ccccc21` [FLUORESCEIN], the IC50 [1] was 600 µM, the IC50 [2] was 850 µM and the IC50 [3] was greater than 1000 µM.
